Data from the NIST ThermoML archive (doi:10.1016/j.fluid.2015.03.036).
± gives the expanded uncertainty stated by the source.

Columns and labels:
[1] = Molar enthalpy of transition or fusion; conditions: Crystal; DSC
[2] = Solid-liquid equilibrium temperature; conditions: 100 kPa; Crystal; DTA

With `O=P(Nc1ccccc1)(Oc1ccccc1)Oc1ccccc1` [diphenyl anilinophosphonate] the “Molar enthalpy of transition or fusion” value [1] was 0.0171 ± 0.0406 kcal/mol and the Solid-liquid equilibrium temperature [2] was 406.91 ± 0.32 K.
